By EC50 is commonly meant the concentration giving half of the maximal effect.

Here are results for 20 compounds from article PMC2765047 (Journal of medicinal chemistry, 2009).

Like-named read-outs stand apart in the source and are kept apart here.

One data set concerns HCMV. The settings on record: ref [1]; cited from earlier work.
For data set [1], the system named is HFF cells. The settings on record: read-out: CC50 HCMV/HFF AD169; cytotoxicity by neutral red uptake; ref [2]; cited from earlier work.
In a further data set the test system is HCMV Towne. Put plainly: HCMV plaque reduction assay, Towne strain, in HFF cells. Type of data set: cell-based, human cytomegalovirus (HCMV). The settings on record: Human betaherpesvirus 5, HFF, read-out: EC50 Virus Strain Towne. (Plaques are areas of infected cells; plaque reduction assays count them against a control.)
Data set [2] deals with HFF cells. The settings on record: read-out: CC50 HCMV/HFF Towne; visual cytotoxicity in uninfected HFF's; ref [2]; cited from earlier work.
The subject of a further data set is Akata cells. As to conditions: read-out: CC50 EBV/Akata, ref [28]; cited from earlier work.
Data set [3] is described as follows: Visual cytotoxicity in uninfected HFF's used in plaque reduction assays. As to conditions: human. The format is cell-based.
A short description of data set [4]: Cytotoxicity by neutral red uptake. The format is cell-based. The settings on record: human.
For another data set, the target named is T1, ADA from calf intestine (Bos taurus, UniProt P56658).
T1 sequence (P56658 1-363): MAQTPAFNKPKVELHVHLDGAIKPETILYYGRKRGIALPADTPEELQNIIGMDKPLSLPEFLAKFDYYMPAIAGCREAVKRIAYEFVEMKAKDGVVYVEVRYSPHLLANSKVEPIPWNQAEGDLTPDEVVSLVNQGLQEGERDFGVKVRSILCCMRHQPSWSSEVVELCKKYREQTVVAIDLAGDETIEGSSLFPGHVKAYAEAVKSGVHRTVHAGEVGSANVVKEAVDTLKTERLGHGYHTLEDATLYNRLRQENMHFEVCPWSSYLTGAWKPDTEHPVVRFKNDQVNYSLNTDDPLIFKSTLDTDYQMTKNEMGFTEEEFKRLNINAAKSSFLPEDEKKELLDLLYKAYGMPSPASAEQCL
Put plainly: Adenosine deaminase. The format is biochemical.

The next data set concerns HSV-1. Kind of data set: HSV-1 antiviral assay. The format is cell-based, herpes simplex virus 1. The settings on record: human foreskin fibroblast (HFF) culture.
A further data set can be described thus: in vitro. The format is cell-based. As to conditions: human.
The next data set concerns HSV-2. Kind of data set: HSV-2 antiviral assay. Type of data set: cell-based, herpes simplex virus 2. As to conditions: human foreskin fibroblast (HFF) culture.

For the compound `Nc1c2ncnc-2ncn1/C=C1\CC1CO` (centres unmarked) [Compound 1a, synadenol], the “activity against HCMV (in words)” value in the data set with HCMV is recorded as “effective”. In the case of `Nc1nc(O)c2ncn(/C=C3/CC3CO)c2n1` (centres unmarked) [Compound 1b], in the data set with HCMV, the “activity against HCMV (in words)” value is recorded as “highly effective”. For `Nc1ncnc2c1ncn2C=C1CC1(CO)CO` [Compound 3a], the “activity against HCMV (in words)” value in the data set on HCMV is recorded as “effective”. In the case of `Nc1nc2c(ncn2/C=C2/CC2(CO)CO)c(=O)[nH]1` [Compound 3b, cyclopropavir], in the data set with HCMV, the “activity against HCMV (in words)” value was “highly effective”. Besides, the CC50 in the data set with HFF cells [1] was more than 100 µM; in the data set with HFF cells [2], more than 100 µM; in the data set on Akata cells it was 46 µM. In addition, the EC50 with HCMV Towne worked out at 0.6 µM. For the compound `Nc1ncnc2c1ncn2/C=C1/C[C@@H]1[C@H](O)CO` [Compound 12a], the CC50 is more than 100 µM in data set [3] and more than 300 µM in [4].

On to `Nc1nc2c(ncn2/C=C2/C[C@@H]2[C@H](O)CO)c(=O)[nH]1` [Compound 12b, (+)-9-{(Z)-{(S)-2-[(S)-1,2-Dihydroxyethyl)cyclopropylidene]methyl}guanine], for which the CC50 was more than 100 µM in data set [3] and more than 300 µM in data set [4]. As to `Nc1ncnc2c1ncn2/C=C1\C[C@@H]1[C@H](O)CO` [Compound 13a], the CC50 in data set [4] is more than 300 µM. As to `Nc1nc2c(ncn2/C=C2\C[C@@H]2[C@H](O)CO)c(=O)[nH]1` [Compound 13b], in [3], the CC50 is more than 100 µM.

Consider `Nc1ncnc2c1ncn2/C=C1/C[C@@H]1[C@@H](O)CO` [Compound 14a], for which the CC50 in data set [3] is more than 100 µM. As to `Nc1nc2c(ncn2/C=C2/C[C@@H]2[C@@H](O)CO)c(=O)[nH]1` [Compound 14b], the CC50 in data set [3] was more than 100 µM; in data set [4], more than 300 µM. For `Nc1ncnc2c1ncn2/C=C1\C[C@@H]1[C@@H](O)CO` [Compound 15a], in that order: more than 100 µM and more than 300 µM.

In the case of `Nc1nc2c(ncn2/C=C2\C[C@@H]2[C@@H](O)CO)c(=O)[nH]1` [Compound 15b], the CC50 in [3] is more than 100 µM; in [4] it was more than 300 µM. For `Nc1nc2c(ncn2COC(CO)CO)c(=O)[nH]1` [Ganciclovir, ganciclovir], the EC50 in the data set with HCMV Towne is 2 µM. `Nc1ncnc2c1ncn2/C=C1/C[C@H]1[C@@H](O)CO` [ent-12a]: at ADA from calf intestine, the “substrate activity toward ADA (in words)” value was “resistant to deamination”. Besides, the CC50 in [3] is more than 100 µM; in data set [4], 194 µM. `Nc1nc2c(ncn2/C=C2/C[C@H]2[C@@H](O)CO)c(=O)[nH]1` [ent-12b]: in the data set with HSV-1, the “activity against HSV-1 (in words)” value is “inactive”. In “in vitro”, the CC50 was determined as 284 µM. Also, the “activity against HSV-2 (in words)” value in the data set with HSV-2 was “inactive”. As to `Nc1ncnc2c1ncn2/C=C1\C[C@H]1[C@@H](O)CO` [ent-13a], in [3], the CC50 is more than 100 µM. Compound `Nc1nc2c(ncn2/C=C2\C[C@H]2[C@@H](O)CO)c(=O)[nH]1` [ent-13b] yielded a CC50 in [3] of more than 100 µM.

`Nc1ncnc2c1ncn2/C=C1/C[C@H]1[C@H](O)CO` [ent-14a]: the “substrate activity toward ADA (in words)” value on ADA from calf intestine is given as “resistant to deamination”. For the same compound, the CC50 in data set [3] is more than 100 µM.

`Nc1nc2c(ncn2/C=C2/C[C@H]2[C@H](O)CO)c(=O)[nH]1` [ent-14b]: the CC50 in data set [3] and in data set [4] was more than 300 µM each time. Compound `Nc1ncnc2c1ncn2/C=C1\C[C@H]1[C@H](O)CO` [ent-15a] came in with a CC50 in data set [3] of more than 100 µM.
